Assay [1] has as its system Rattus norvegicus. In words: Antihyperuricemic activity in Sprague-Dawley rat assessed as decrease of potassium oxonate-induced uric acid level in serum at 50 mg/kg, ip administered 1 hr post potassium oxonate challenge measured after 4 hrs by photometric analysis relative to control. The following applies: route intraperitoneal. Further details: scale not given: the % may be the effect or the level left. The assay is classed as functional.

Assay [2] concerns Rattus norvegicus. Nature of the assay: Antihyperuricemic activity in Sprague-Dawley rat assessed as decrease of potassium oxonate-induced uric acid level in serum at 100 mg/kg, po administered 1 hr post potassium oxonate challenge measured after 4 hrs by photometric analysis relative to control. The assay is classed as functional. On the set-up: scale not given: the % may be the effect or the level left.

Assay [3] deals with T1, Xanthine dehydrogenase/oxidase (Bos taurus, UniProt P80457). Nature of the assay: Inhibition of bovine xanthine oxidase assessed as uric acid formation using xanthine as substrate at 100 uM after 30 mins by spectrophotometric analysis. The note with it: cattle, 0.5 h.
In assay [4] the target is T1, Xanthine dehydrogenase/oxidase. Nature of the assay: Inhibition of bovine xanthine oxidase assessed as uric acid formation using xanthine as substrate after 30 mins by spectrophotometric analysis.
Assay [5] shares this target. Nature of the assay: Inhibition of bovine xanthine oxidase assessed as uric acid formation using xanthine as substrate at 10 uM after 30 mins by spectrophotometric analysis. The note with it: cattle, 0.5 h.
The test system of assay [6] is Rattus norvegicus. In words: Antihyperuricemic activity in Sprague-Dawley rat assessed as decrease of potassium oxonate-induced uric acid level in serum at 10 mg/kg, po administered 1 hr post potassium oxonate challenge measured after 4 hrs by photometric analysis relative to control. Further details: scale not given: the % may be the effect or the level left.

T1 sequence (P80457 whole entry): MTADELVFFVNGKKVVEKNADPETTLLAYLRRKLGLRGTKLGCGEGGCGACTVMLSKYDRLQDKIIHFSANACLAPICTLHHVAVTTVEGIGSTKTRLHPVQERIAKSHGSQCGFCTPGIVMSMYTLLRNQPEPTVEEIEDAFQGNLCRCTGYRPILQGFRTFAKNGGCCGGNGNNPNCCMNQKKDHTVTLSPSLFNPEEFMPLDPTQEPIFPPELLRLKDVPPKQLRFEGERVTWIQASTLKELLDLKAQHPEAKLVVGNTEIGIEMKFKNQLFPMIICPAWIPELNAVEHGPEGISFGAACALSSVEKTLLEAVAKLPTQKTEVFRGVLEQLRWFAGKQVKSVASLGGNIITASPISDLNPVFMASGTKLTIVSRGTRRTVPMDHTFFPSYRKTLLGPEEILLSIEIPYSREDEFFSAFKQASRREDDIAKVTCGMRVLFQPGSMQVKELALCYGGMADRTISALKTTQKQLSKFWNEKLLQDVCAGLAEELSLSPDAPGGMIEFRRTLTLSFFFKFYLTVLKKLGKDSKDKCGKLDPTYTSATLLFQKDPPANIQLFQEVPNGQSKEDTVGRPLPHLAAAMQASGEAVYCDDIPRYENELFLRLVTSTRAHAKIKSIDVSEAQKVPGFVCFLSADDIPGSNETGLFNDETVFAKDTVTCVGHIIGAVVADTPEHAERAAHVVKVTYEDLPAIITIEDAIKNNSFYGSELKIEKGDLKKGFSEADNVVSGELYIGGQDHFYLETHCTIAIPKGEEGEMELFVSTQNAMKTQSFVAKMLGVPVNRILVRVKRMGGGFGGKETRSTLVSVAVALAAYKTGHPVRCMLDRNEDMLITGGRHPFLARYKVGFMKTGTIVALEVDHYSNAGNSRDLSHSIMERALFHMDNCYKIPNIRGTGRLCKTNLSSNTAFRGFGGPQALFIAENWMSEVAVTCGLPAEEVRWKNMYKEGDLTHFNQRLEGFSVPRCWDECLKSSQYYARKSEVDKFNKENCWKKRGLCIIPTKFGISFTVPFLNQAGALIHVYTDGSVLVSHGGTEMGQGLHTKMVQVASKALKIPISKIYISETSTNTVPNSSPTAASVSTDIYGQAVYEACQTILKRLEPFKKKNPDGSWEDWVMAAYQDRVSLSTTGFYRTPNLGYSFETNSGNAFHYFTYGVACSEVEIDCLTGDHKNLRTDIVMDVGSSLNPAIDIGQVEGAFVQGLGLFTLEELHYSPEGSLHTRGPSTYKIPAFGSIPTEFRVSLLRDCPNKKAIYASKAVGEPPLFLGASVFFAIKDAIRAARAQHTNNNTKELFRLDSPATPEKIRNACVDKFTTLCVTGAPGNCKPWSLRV

Regarding `COc1ccc(-c2cc(O)nc(N)n2)cc1OC`, the Activity in the assay on Rattus norvegicus [1] worked out at 57%. Turning to `COc1ccc(-c2cc(O)nc(N)n2)cc1`, in the assay with Rattus norvegicus [2], the Activity turned out to be 84%.

As for `COc1cc2c(cc1OC)-c1n[nH]c(=O)n1CC2`, the inhibition at 100 µM in assay [3] worked out at 0%. `O=C(O)c1ccc(-n2ccnc2)c([N+](=O)[O-])c1`: the inhibition at 100 µM in assay [3] is 0%.

For the compound `COc1ccc(-c2cc(NS(C)(=O)=O)nc(N)n2)cc1`, the IC50 in assay [4] is greater than 100 µM.

As for `COc1ccc(-c2cc(C(F)(F)F)nc(N)n2)cc1`, the concentration for half-maximal inhibition (IC50) in assay [4] is greater than 100 µM. On to `Oc1ncnc2[nH]ncc12` [ALLOPURINOL], for which the inhibition at 10 µM in assay [5] stood at 100%. Further, the Activity in the assay with Rattus norvegicus [6] turned out to be 184%. For the compound `Cc1nc(-c2ccc(OCC(C)C)c(C#N)c2)sc1C(=O)O` [FEBUXOSTAT], the Activity with Rattus norvegicus [6] is 209%. Consider `COc1ccc(-c2cc(O)nc(O)n2)cc1`, for which, in assay [3], the inhibition at 100 µM turned out to be 0%. Besides, the concentration for half-maximal inhibition (IC50) in assay [4] was greater than 100 µM. For the compound `O=C1C(=CNNc2ccccc2)C(=O)N(c2ccc(Cl)cc2)C(=S)N1c1ccc(Cl)cc1`, in assay [3], the inhibition at 100 µM stood at 0%. As for `COC(=O)c1cc(C)c2c(c1)S(=O)(=O)Cc1cc(NN)cc(Cl)c1O2`, the inhibition at 100 µM in assay [3] was determined as 0%.

Broadly, the inhibition is the relative decrease from the control value, in per cent. The IC50 is the concentration that inhibits the measured activity by half.
